Measured values published in patent US20150238441A1, “Modulation of Branched Amino Acid Concentrations to Treat Metabolic Diseases” (UNIVERSITY OF ROCHESTER, priority 2012, published 2015).

Experiments:
C57BL/6 mice = experiment: Plasma metabolite levels in mice after a single 1 mg/kg oral gavage dose of NTBC (GC/MS and LC/MS/MS); format: in vivo; conditions: single aqueous 1 mg/kg dose by oral gavage, plasma 6 h following dosing, male C57BL/6 mice
Description: For example, six male C57BL/6 mice (20-25 gm, 8-9 weeks age) were administered a single aqueous 1 mg/kg dose of NTBC by oral gavage. Plasma samples were taken 6 h following dosing. […] We conclude that NTBC can be used to reduce plasma BCAA levels in mice. It should be noted that an early study reported that plasma BCAA levels were unaffected after dosing rats with 10 mg/kg NTBC for 11 weeks (Lock et al., 1996).
The dosing solutions were prepared the day of study dosing, approximately one hour prior to dosing. Compound 1 is nitisinone (also referred to herein as “NTBC”).
54 C56BL/6 mice were housed for at least 3 days prior to dosing and were fully acclimated at study start. All mice were ad libitum fed throughout the study. Water was given ad libitum throughout the holding and study periods. Body weight was measured prior to dosing. Dosing for Group 2 and 3 occurred once on the day of study.
Blood collection (approximately 600 μL) was into pre-chilled (0-4° C.) K3-EDTA containing polypropylene blood collection tubes. After blood collection, blood samples were maintained chilled (2-6° C.) and centrifuged within 30 minutes. […]
Samples were extracted and split into equal parts for analysis on GC/MS and LC/MS/MS platforms. Proprietary software was used to match ions to a library of standards for metabolite identification and for metabolite quantitation by peak area integration.

patients = patients taking the drug; cited from earlier work

Compound | reduction of plasma levels of valine, isoleucine and leucine (BCAAs) (C57BL/6 mice) | patients who suffer gastrointestinal side effects (patients)
O=C1CCCC(=O)C1C(=O)c1ccc(C(F)(F)F)cc1[N+](=O)[O-] [Compound 1, nitisinone] | greater than 25% | 
CN(C)C(=N)N=C(N)N [metformin] |  | More than 60%
